Experiments:
Experiment in all cases: relative viability (nuclei count vs DMSO), 5 days (fraction); higher = more cells survive
Bortezomib + Linsitinib = compound: CC(C)C[C@H](NC(=O)[C@H](Cc1ccccc1)NC(=O)c1cnccn1)B(O)O [Bortezomib] + C[C@]1(O)C[C@@H](c2nc(-c3ccc4ccc(-c5ccccc5)nc4c3)c3c(N)nccn32)C1 [Linsitinib] (partner 1 µM)
Outline: (§1)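 Relative viability divides the nuclei count in treated wells by that in vehicle wells. Lung cancer cell lines were seeded in 1536-well plates, dosed by pin tool the next day, and fixed and stained after 5 days in one step with final 0.05% Triton X-100, 1% formaldehyde and 1 ug/ml Hoechst. Dosing was a single drug or a fixed anchor-drug dose plus five library-drug doses (not always all listed) in √10 steps, and values are medians of duplicate plates imaged at 4×.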

Bortezomib + Olaparib = compound: CC(C)C[C@H](NC(=O)[C@H](Cc1ccccc1)NC(=O)c1cnccn1)B(O)O [Bortezomib] + O=C(c1cc(Cc2n[nH]c(=O)c3ccccc23)ccc1F)N1CCN(C(=O)C2CC2)CC1 [Olaparib] (partner 8 µM)
Outline: as §1

[1] = compound: CC1=CC(=NN1)NC2=CC(=NC(=N2)/C=C/C3=CC=CC=C3)N4CCN(CC4)C + C[C@]1(O)C[C@@H](c2nc(-c3ccc4ccc(-c5ccccc5)nc4c3)c3c(N)nccn32)C1 [Linsitinib] (partner 1 µM)
Outline: as §1

Obatoclax + Linsitinib = compound: COC1=CC(c2cc3ccccc3[nH]2)=N/C1=C\c1[nH]c(C)cc1C [Obatoclax] + C[C@]1(O)C[C@@H](c2nc(-c3ccc4ccc(-c5ccccc5)nc4c3)c3c(N)nccn32)C1 [Linsitinib] (partner 1 µM)
Outline: as §1

| Cell Line | relative viability (Bortezomib + Linsitinib; first compound 0.0002 µM) | relative viability (Bortezomib + Linsitinib; first compound 0.000632 µM) | relative viability (Bortezomib + Linsitinib; first compound 0.002 µM) | relative viability (Bortezomib + Linsitinib; first compound 0.006325 µM) | relative viability (Bortezomib + Linsitinib; first compound 0.02 µM) | relative viability (Bortezomib + Olaparib; first compound 0.0002 µM) | relative viability (Bortezomib + Olaparib; first compound 0.000632 µM) | relative viability (Bortezomib + Olaparib; first compound 0.002 µM) | relative viability (Bortezomib + Olaparib; first compound 0.006325 µM) | relative viability (Bortezomib + Olaparib; first compound 0.02 µM) | relative viability ([1]; first compound 0.08 µM) | relative viability ([1]; first compound 0.253 µM) | relative viability ([1]; first compound 0.8 µM) | relative viability ([1]; first compound 2.53 µM) | relative viability ([1]; first compound 8 µM) | relative viability (Obatoclax + Linsitinib; first compound 0.01 µM) | relative viability (Obatoclax + Linsitinib; first compound 0.03162 µM) | relative viability (Obatoclax + Linsitinib; first compound 0.1 µM) | relative viability (Obatoclax + Linsitinib; first compound 0.3162 µM) | relative viability (Obatoclax + Linsitinib; first compound 1 µM) |
| --- | --- | --- | --- | --- | --- | --- | --- | --- | --- | --- | --- | --- | --- | --- | --- | --- | --- | --- | --- | --- |
| CAL-12T | 0.898 | 0.852 | 0.742 | 0.662 | 0.165 | 0.625 | 0.675 | 0.62 | 0.282 | 0.199 | 0.756 | 0.69 | 0.979 | 0.49 | 0.214 | 0.646 | 0.773 | 0.919 | 0.809 | 0.526 |
| HCC-44 | 0.618 | 0.61 | 0.515 | 0.19 | 0.113 | 0.942 | 0.986 | 0.99 | 0.715 | 0.315 | 0.64 | 0.755 | 0.659 | 0.235 | 0.201 | 0.688 | 0.628 | 0.688 | 0.555 | 0.63 |
| NCI-H1944 | 1.13 | 1.06 | 1.06 | 1.23 | 0.627 | 0.419 | 0.392 | 0.414 | 0.331 | 0.142 | 1.21 | 1.4 | 1.23 | 0.86 | 0.348 | 1.1 | 1.2 | 1.27 | 1.19 | 1.3 |
| SK-MES-1 | 1.08 | 1.06 | 1.1 | 0.54 | 0.189 | 0.649 | 0.839 | 0.521 | 0.171 | 0.159 | 1.06 | 1.04 | 0.939 | 0.796 | 0.146 | 0.991 | 1.1 | 1.09 | 0.98 | 0.687 |

From the supplement of paper PMC10307832
